# What was measured:
# [1] = test system: CD4-positive T cells derived from the mutant mouse; assay: Cytokine-dependent cell proliferation activity (WST-8 assay); assay type: cell-based; conditions: cytokine/PMA-stimulated, 48 hours culture, Jak inhibitor I 3-100 nM, Jak3 inhibitor I 125-500 μM
# Description: Cytokine-dependent cell proliferation activity was measured as described below. Single cells of the thymus in suspension were cultured at a density of 5×10^5 cells/well, and stimulated with PMA (10 ng/ml) [IL-2 (25 ng/ml), IL-4 (25 ng/ml), IL-6 (100 ng/ml), IL-7 (25 ng/ml), IL-12 (1-100 ng/ml) or IFN-γ (100 ng/ml) (Peprotech and R&D) was added]. Used in some experiments was the pan-Jak inhibitor Jak inhibitor I (3-100 nM, pyridone 6; Calbiochem) or Jak3 inhibitor I (125-500 μM, WHI-P131; Calbiochem). The cells were cultured for 48 hours, and their proliferation was measured by an assay using WST-8 (Nacalai Tesque) and soluble tetrazolium/formazan.
# EGF receptor (EGFR) = conditions: Kumamoto T. et al., Cancer Lett. 2009; cited from earlier work
# Jak1 = conditions: Kumamoto T. et al., Cancer Lett. 2009; cited from earlier work
# ear skins of mutant mice [2] = assay: Petrolatum coating of ear skin of mutant mice, development of dermatitis; assay type: in vivo, mouse; conditions: Jak inhibitor added to petrolatum
# Description: (§1) A mouse model of atopic dermatitis was generated according to a detailed protocol reported [Masuya et al., Hum Mol Genet. 16, 2366-2375 (2007); http://www.brc.riken.jp/lab/gsc/mouse/]. C57BL/6J mice and C3H/HeJ mice were purchased from CLEA Japan. C57BL/6-kit^W-sh/W-sh mice were obtained from the RIKEN BioResource Center. C57BL/6-RAG1^−/− mice were allowed to propagate spontaneously. Severity scores were determined using an improved version of a reported scale [Matsuda et al., Int Immunol. 9, 461-466 (1997)]. The mice were reared in an SPF (specific pathogen-free) environment and subjected to experiments in compliance with the guidelines with the approval of RIKEN's Animal Experiment Committee.
# To determine whether the destruction of the skin permeability barrier causes the development of dermatitis in the mutant mice, their ear skins were coated with petrolatum alone three times a week for 4 to 16 weeks.
# ear skins of mutant mice [3] = assay: Topical application of Jak inhibitor to ear skin of mutant mice, development of dermatitis; assay type: in vivo, mouse
# Description: as §1
# (§2) Jak inhibitor I (150 μM, pyridone 6; Calbiochem) in suspension in acetone/olive oil (4:1), 10 μl, was topically applied to the ventral and dorsal parts of the ear skin of each mutant mouse three times a week, starting at 4 weeks after birth.
# The above-described Example has shown that dermatitis in the mutant mice is caused by excess activation of Jak1 and resulting defect of the skin barrier. To verify this hypothesis, a Jak inhibitor was coated on the ear skins of mutant mice at 4 weeks after birth and their litter mates. To allow the inhibitor to deeply penetrate the epidermal layer, a combination of acetone and olive oil was used as the solvent for the inhibitor. In fact, this solvent itself was harmful to the formation of the epidermal barrier; the development of dermatitis in the mutant mice was promoted by administering this solvent.
# [4] = test system: pY-Jak1 and Ki67 in the ear skins of the mutant mice; assay: Histoimmunological staining of differentiation marker molecules in ear skin after Jak inhibitor; assay type: in vivo, mouse; conditions: mutant mice treated with Jak inhibitor for 2 weeks from Week 4 of age
# Description: as §2
# For analysis by immunofluorescence, frozen ear tissue specimens were fixed and stained using an antibody against pY-Jak1 (Cell Signaling), an antibody against Ki67 (Abcam), and an antibody against K6, K14 or K10 (Covance). Next, samples were incubated with an FITC- or Cy3-conjugated goat anti-rabbit IgG secondary antibody (Zymed). The slides were further counter-stained with hematoxylin or DAPI (Vector Laboratories).
# Since some differentiation marker molecules were abnormally expressed in the epidermal layer, how the expression of those differentiation marker molecules changed with inhibition of Jak1 activity with a Jak inhibitor in mutant mice was examined by histoimmunological staining (FIG. 5c). By inhibiting Jak1 activity, the expression of pY-Jak1 and the expression of Ki67 in the ear skins of the mutant mice could be reduced. In contrast, in the mice receiving the solvent alone, Jak1 and Ki67 were activated in excess. […] In the ear skins of mice treated with acetone-olive oil alone, all markers were expressed at higher levels than in the skins of non-treated mice.
Compound,inhibition of accentuated (excess) proliferation of lymphocytes [1],inhibition of accentuated (excess) proliferation of lymphocytes ([1]; listed as Jak 3 inhibitor I),self-phosphorylation of EGF receptor (EGFR) (EGF receptor (EGFR)),phosphorylation of Jak1 (Jak1),additive effect on suppression of development of the illness (ear skins of mutant mice [2]),"delay of development of dermatitis compared with solvent alone (ear skins of mutant mice [3]; 150 μM in acetone/olive oil, 10 μl topically on ear skin three times a week from 4 weeks after birth)","clinical symptoms compared with solvent alone (ear skins of mutant mice [3]; 150 μM in acetone/olive oil, topical on ear skin three times a week from 4 weeks after birth)","development of dermatitis (in words) (ear skins of mutant mice [3]; Jak inhibitor applied to the skin, FIG. 5)",progression of the illness after development of dermatitis (ear skins of mutant mice [3]; coating with the Jak inhibitor on ear skin),expression of Ki67 in ear skin [4],expression of pY-Jak1 in ear skin [4],inhibition of accentuated (excess) proliferation of lymphocytes ([1]; listed as Jak inhibitor I)
COc1cc2ncnc(Nc3ccc(O)cc3)c2cc1OC [WHI-P131],not,lack of proliferation inhibition,,,,,,,,,,
"O=c1c(O)c(-c2cc(O)c(O)c(O)c2)oc2cc(O)cc(O)c12 [myricetin, 3,3′,4′,5,5′,7-hexahydroxyflavone]",,,increase,inhibit,,,,,,,,
CC(C)(C)c1nc2c3cc[nH]c(=O)c3c3cc(F)ccc3c2[nH]1 [pyridone 6],dose-dependently inhibited,,,,no additive effect,1 week,less severe clinical symptoms,suppressed,suppressed the progression of the illness,reduced,reduced,inhibited dose-dependently

# From patent US20120034226A1, “DIAGNOSTIC METHOD OF SKIN INFLAMMATORY DISEASE” (RIKEN, priority 2009, published 2012)
